Data: ChEMBL document CHEMBL3885861, “Open TG-GATES”

Organism: Rattus norvegicus
Test: Open TG-GATES - Regimen: Single
Assay type: toxicity, organism-based, Sprague-Dawley
Design: regimen Single, gender Male, age 6 weeks
Details: in vivo, po, 300 mg/kg, route gavage, dose level Middle; for APTT / Bas / Eos / Fbg / Hb / Ht / Lym / MCH / MCHC / MCV / Mono / Neu / PT / Plat / RBC / Ret / WBC: tissue Blood; for KIDNEY_L / KIDNEY_R / KIDNEY_TOTAL: tissue Kidney; for LIVER: tissue Liver; for A/G / ALP / ALT / AST / BUN / CRE / Ca / Cl / DBIL / GLC / IP / K / LDH / Na / PL / RALB / TBIL / TC / TG / TP / gamma-GTP: tissue Plasma

Question: With `O=C(O)c1cc(/N=N/c2ccc(S(=O)(=O)Nc3ccccn3)cc2)ccc1O` [SULFASALAZINE] as the compound, how does the TERMINAL_BW (3 h) read?
Answer: Its TERMINAL_BW is 212.5 g.

Question: And the APTT (3 h)?
Answer: Its APTT is 18.5 s.

Question: And the Bas (3 h)?
Answer: Its Bas is 0%.

Question: What about the Eos (3 h) of the same compound?
Answer: Its Eos is 1%.

Question: And the Fbg (3 h)?
Answer: Its Fbg is 215.2 mg/dL.

Question: What about the Hb (3 h) of the same compound?
Answer: Its Hb is 13.1 g/dL.

Question: And the Ht (3 h)?
Answer: Its Ht is 38.5%.

Question: What about the Lym (3 h) of the same compound?
Answer: Its Lym is 79%.

Question: What about the MCH (3 h) of the same compound?
Answer: Its MCH is 21.3 pg.

Question: And the MCHC (3 h)?
Answer: The MCHC was 34%.

Question: What about the MCV (3 h) of the same compound?
Answer: The MCV was 62.6 fL.

Question: And the Mono (3 h)?
Answer: The Mono was 2.6%.

Question: What about the Neu (3 h) of the same compound?
Answer: Its Neu is 16.2%.

Question: What about the PT (3 h) of the same compound?
Answer: Its PT is 12.9 s.

Question: And the Plat (3 h)?
Answer: The Plat was 115.5 x10_4/uL.

Question: And the RBC (3 h)?
Answer: Its RBC is 615.6 x10_4/ul.

Question: And the Ret (3 h)?
Answer: Its Ret is 6.7%.

Question: And the WBC (3 h)?
Answer: Its WBC is 93.5 x10_2/uL.

Question: What about the KIDNEY_L (3 h) of the same compound?
Answer: The KIDNEY_L was 1 g.

Question: And the KIDNEY_R (3 h)?
Answer: The KIDNEY_R was 0.9 g.

Question: What about the KIDNEY_TOTAL (3 h) of the same compound?
Answer: The KIDNEY_TOTAL was 1.9 g.

Question: And the LIVER (3 h)?
Answer: Its LIVER is 9.7 g.

Question: And the A/G (3 h)?
Answer: Its A/G is 1.6.

Question: And the ALP (3 h)?
Answer: The ALP was 897.6 IU/L.

Question: What about the ALT (3 h) of the same compound?
Answer: Its ALT is 36.6 IU/L.

Question: And the AST (3 h)?
Answer: The AST was 61.4 IU/L.

Question: What about the BUN (3 h) of the same compound?
Answer: Its BUN is 10.8 mg/dL.

Question: And the CRE (3 h)?
Answer: The CRE was 0.4 mg/dL.

Question: What about the Ca (3 h) of the same compound?
Answer: Its Ca is 10.4 mg/dL.

Question: And the Cl (3 h)?
Answer: Its Cl is 102.2 meq/L.

Question: What about the DBIL (3 h) of the same compound?
Answer: Its DBIL is 0.064 mg/dL.

Question: What about the GLC (3 h) of the same compound?
Answer: Its GLC is 198.2 mg/dL.

Question: And the IP (3 h)?
Answer: Its IP is 9.6 mg/dL.

Question: And the K (3 h)?
Answer: The K was 3.7 meq/L.

Question: And the LDH (3 h)?
Answer: The LDH was 147.2 IU/L.

Question: And the Na (3 h)?
Answer: The Na was 140.6 meq/L.

Question: What about the PL (3 h) of the same compound?
Answer: Its PL is 140 mg/dL.

Question: What about the RALB (3 h) of the same compound?
Answer: Its RALB is 3.3 g/dL.

Question: And the TBIL (3 h)?
Answer: Its TBIL is 0.1 mg/dL.

Question: What about the TC (3 h) of the same compound?
Answer: Its TC is 71.2 mg/dL.

Question: What about the TG (3 h) of the same compound?
Answer: The TG was 59.6 mg/dL.

Question: What about the TP (3 h) of the same compound?
Answer: The TP was 5.4 g/dL.

Question: What about the gamma-GTP (3 h) of the same compound?
Answer: Its gamma-GTP is 1 IU/L.

Question: What about the TERMINAL_BW (6 h) of the same compound?
Answer: Its TERMINAL_BW is 209.1 g.

Question: And the APTT (6 h)?
Answer: Its APTT is 18.9 s.

Question: And the Bas (6 h)?
Answer: The Bas was 0%.

Question: And the Eos (6 h)?
Answer: The Eos was 1%.

Question: And the Fbg (6 h)?
Answer: Its Fbg is 230.2 mg/dL.

Question: And the Hb (6 h)?
Answer: The Hb was 13.2 g/dL.

Question: And the Ht (6 h)?
Answer: Its Ht is 39%.

Question: And the Lym (6 h)?
Answer: Its Lym is 76.2%.

Question: What about the MCH (6 h) of the same compound?
Answer: Its MCH is 21.4 pg.

Question: What about the MCHC (6 h) of the same compound?
Answer: Its MCHC is 34%.

Question: What about the MCV (6 h) of the same compound?
Answer: The MCV was 63.1 fL.

Question: What about the Mono (6 h) of the same compound?
Answer: Its Mono is 3%.

Question: What about the Neu (6 h) of the same compound?
Answer: The Neu was 19%.

Question: And the PT (6 h)?
Answer: Its PT is 12.6 s.

Question: What about the Plat (6 h) of the same compound?
Answer: The Plat was 115.4 x10_4/uL.

Question: What about the RBC (6 h) of the same compound?
Answer: The RBC was 618.8 x10_4/ul.

Question: What about the Ret (6 h) of the same compound?
Answer: The Ret was 7.4%.

Question: And the WBC (6 h)?
Answer: The WBC was 81.1 x10_2/uL.

Question: And the KIDNEY_L (6 h)?
Answer: Its KIDNEY_L is 1 g.

Question: And the KIDNEY_R (6 h)?
Answer: Its KIDNEY_R is 0.9 g.

Question: And the KIDNEY_TOTAL (6 h)?
Answer: The KIDNEY_TOTAL was 1.9 g.

Question: And the LIVER (6 h)?
Answer: The LIVER was 9.8 g.

Question: What about the A/G (6 h) of the same compound?
Answer: Its A/G is 1.5.

Question: What about the ALP (6 h) of the same compound?
Answer: Its ALP is 961.6 IU/L.

Question: And the ALT (6 h)?
Answer: Its ALT is 33.8 IU/L.

Question: And the AST (6 h)?
Answer: The AST was 68.8 IU/L.

Question: What about the BUN (6 h) of the same compound?
Answer: Its BUN is 11.4 mg/dL.

Question: What about the CRE (6 h) of the same compound?
Answer: The CRE was 0.4 mg/dL.

Question: What about the Ca (6 h) of the same compound?
Answer: Its Ca is 10.8 mg/dL.

Question: And the Cl (6 h)?
Answer: The Cl was 102.2 meq/L.

Question: What about the DBIL (6 h) of the same compound?
Answer: Its DBIL is 0.072 mg/dL.

Question: And the GLC (6 h)?
Answer: Its GLC is 190 mg/dL.

Question: And the IP (6 h)?
Answer: Its IP is 9.5 mg/dL.

Question: What about the K (6 h) of the same compound?
Answer: Its K is 4 meq/L.

Question: And the LDH (6 h)?
Answer: Its LDH is 191.4 IU/L.

Question: What about the Na (6 h) of the same compound?
Answer: The Na was 140.8 meq/L.

Question: What about the PL (6 h) of the same compound?
Answer: The PL was 164.4 mg/dL.

Question: What about the RALB (6 h) of the same compound?
Answer: The RALB was 3.4 g/dL.

Question: And the TBIL (6 h)?
Answer: Its TBIL is 0.1 mg/dL.

Question: What about the TC (6 h) of the same compound?
Answer: The TC was 88.6 mg/dL.

Question: What about the TG (6 h) of the same compound?
Answer: The TG was 79.8 mg/dL.

Question: What about the TP (6 h) of the same compound?
Answer: The TP was 5.7 g/dL.

Question: What about the gamma-GTP (6 h) of the same compound?
Answer: The gamma-GTP was 1 IU/L.
